For one experiment, the target named is T1, TAK1-TAB1 (Homo sapiens, UniProt O43318).
T1 sequence (O43318 with tags, fused parts or gaps limits assumed): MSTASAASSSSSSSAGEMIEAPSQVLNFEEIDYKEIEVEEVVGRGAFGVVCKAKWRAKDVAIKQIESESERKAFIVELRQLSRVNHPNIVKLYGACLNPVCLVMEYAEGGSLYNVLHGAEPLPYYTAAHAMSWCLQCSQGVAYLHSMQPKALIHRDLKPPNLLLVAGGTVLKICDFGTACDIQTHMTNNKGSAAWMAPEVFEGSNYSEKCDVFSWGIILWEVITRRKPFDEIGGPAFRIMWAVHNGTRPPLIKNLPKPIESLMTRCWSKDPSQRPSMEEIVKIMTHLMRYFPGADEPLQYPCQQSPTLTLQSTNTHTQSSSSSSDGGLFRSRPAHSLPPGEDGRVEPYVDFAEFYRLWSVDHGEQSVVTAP
Description: TAK1-TAB1 binding inhibitory potency (LanthaScreen competitive binding assay, kinase tracer-236). As to conditions: 10 nM TAK1-TAB1, 100 nM kinase tracer-236; read-out: TAK1-Tab Inhibition IC50. The source says: TAK1-TAB1 Binding Inhibitory Potency:
The ability of candidate compounds to interact with TAK1-TAB1 is quantitated by a competitive binding assay using the LanthaScreen technology developed by Life Technologies. This assay is based on the binding of a proprietary, Alexa Fluor® 647-labeled, ATP-competitive kinase inhibitor (kinase tracer-236) to the TAK1-TAB1 construct in presence of a europium-conjugated antibody, resulting in a FRET (fluorescence resonance energy transfer) signal. Displacement of the kinase tracer by compound results in a lower emission ratio upon excitation of the europium chelate. Candidate compounds are designed as potential irreversible inhibitors of TAK1-TAB1, capable of ligating to an active site cysteine residue. The time dependent nature of irreversible inhibition is investigated by performing the binding assay with and without a pre-incubation of compound and TAK1-TAB1.
The inhibitory potency of candidate compounds is measured in 20 mM HEPES pH 7.5, 10 mM MgCl2, 0.01% BSA, 0.0005% Tween-20, and 2% DMSO in the presence of 10 nM TAK1-TAB1, 2 nM Eu-anti-his antibody, and 100 nM kinase tracer-236 using a 384-well plate format. Background signal is defined in the absence of TAK1-TAB1 and uninhibited signal is defined in the presence of vehicle (2% DMSO) alone. Compounds were evaluated in an 11 point dose-response ranging from 20 μM to 0.34 nM. The binding assays are performed under two conditions to evaluate time dependence of inhibition. For the pre-incubation assay, TAK1-TAB1 and Eu-anti-his antibody are preincubated with compound or vehicle for two hours prior to the addition of kinase tracer. The non-preincubated assay is run in which TAK1-TAB1 and Eu-anti-his antibody are added to a mixture of compound and kinase tracer. IC50 values of compounds are determined using a 4 parameter logistical fit of emission ratio as a function of the concentration of compound. […]

Experiment [1] relates to IL-6 Production in Human Peripheral Blood Mononuclear Cells (PBMC). Kind of experiment: LPS stimulated IL-6 production in PBMC cells. The format is cell-based. As to conditions: read-out: IL-6 Production Inhibition IC50. How it is done: LPS Stimulated IL-6 Production in PBMC Cells:
Lipopolysaccharide (LPS) stimulated IL-6 Production in Human Peripheral Blood Mononuclear Cells (PBMC): The cellular efficacy of compound candidates is determined using peripheral blood mononuclear cells purified from human whole blood, based upon the methods of Burnette et al. (2009) Pharmacology, 84:42-60. PBMC produce a number of cytokines (IL6, IL8, IL1β and TNFα) in response to stimulation with LPS. To induce the production of inflammatory mediators, PBMC are plated at a final concentration of 2×10^5 cells/well in a 96 well flat bottom plate in DMEM medium supplemented with 10% fetal bovine serum, 100 units/ml penicillin and 100 μg/ml streptomycin (Gibco BRL Life Technologies). Cells are treated with or without inhibitors for 1-3 hrs then stimulated with 100 ng/ml LPS (serotype 011:B4, Sigma) for an additional 3 hrs at 37° C. with 5% CO2. The supernatants are removed and stored at −20° C. until they are to be assayed. The levels of inflammatory mediators are determined using commercial MSD cytokine kits (Meso Scale Discovery) as per the manufacturer's instructions. Standard curves are based on 7 steps of 4× serial dilutions, with a wide dynamic range of 10000 pg/ml to 2.4 pg/ml, and a blank. Lower limit of detection (LLOD) is calculated at the commonly used 3× the standard deviation of the blank.

One may read the IC50 as the concentration that gives 50% inhibition. `NC(=O)/C=C/c1c[nH]c2ncc(-c3ccccc3)cc12` [Example 1, 3-(5-Phenyl-1H-pyrrolo[2,3-b]pyridin-3-yl)-acrylamide]: the IC50 (at TAK1-TAB1; in experiment [1]) was not above 1 µM throughout. `NC(=O)/C=C/c1c[nH]c2ncc(-c3ccc(F)cc3F)cc12` [Example 2, (E)-3-(5-(2,4-Difluorophenyl)-1H-pyrrolo[2,3-b]pyridin-3-yl)acrylamide]: the IC50 (on TAK1-TAB1; in experiment [1]) was not above 1 µM in each case.

For the compound `NC(=O)/C=C/c1c[nH]c2ncc(-c3ccccc3)nc12` [Example 4, (E)-3-(2-Phenyl-5H-pyrrolo[2,3-b]pyrazin-7-yl)acrylamide], the IC50 (on TAK1-TAB1; in experiment [1]) was not above 1 µM throughout. Consider `Cn1cc(-c2cnc3[nH]cc(/C=C/C(N)=O)c3c2)cn1` [Example 5, (E)-3-(5-(1-Methyl-1H-pyrazol-4-yl)-1H-pyrrolo[2,3-b]pyridin-3-yl)acrylamide], for which the IC50 (at TAK1-TAB1; in experiment [1]) was not above 1 µM each time. As for `Cn1cc(-c2cnc3[nH]cc(/C=C/C(N)=O)c3n2)cn1` [Example 6, (E)-3-(2-(1-Methyl-1H-pyrazol-4-yl)-5H-pyrrolo[2,3-b]pyrazin-7-yl)acrylamide], the IC50 (at TAK1-TAB1; in experiment [1]) was not above 1 µM each time. On to `CC(C)Oc1ccnc2[nH]cc(/C=C/C(N)=O)c12` [Example 7, (E)-3-(4-Isopropoxy-1H-pyrrolo[2,3-b]pyridin-3-yl)acrylamide], for which the IC50 (on TAK1-TAB1; in experiment [1]) was not above 1 µM throughout. As for `CC(C)Oc1cnc2[nH]cc(/C=C/C(N)=O)c2c1` [Example 8, 3-(5-Isopropoxy-1H-pyrrolo[2,3-b]pyridin-3-yl)-acrylamide], the 50% inhibitory concentration (IC50) (at TAK1-TAB1; in experiment [1]) was not above 1 µM throughout. For `CC(C)Nc1cnc2[nH]cc(/C=C/C(N)=O)c2c1` [Example 9, 3-(5-Isopropylamino-1H-pyrrolo[2,3-b]pyridin-3-yl)-acrylamide], the IC50 (on TAK1-TAB1; in experiment [1]) was not above 1 µM each time. In the case of `CC(C)Nc1cnc2[nH]cc(/C=C/C(N)=O)c2n1` [Example 10, 3-(2-Isopropylamino-5H-pyrrolo[2,3-b]pyrazin-7-yl)-acrylamide], the half-inhibitory concentration (IC50) (on TAK1-TAB1; in experiment [1]) was not above 1 µM in each case. Turning to `COc1cccc(-c2cnc3[nH]cc(/C=C/C(N)=O)c3c2)c1` [Example 11, (E)-3-(5-(3-Methoxyphenyl)-1H-pyrrolo[2,3-b]pyridin-3-yl)acrylamide], the IC50 (at TAK1-TAB1; in experiment [1]) was not above 1 µM each time. Turning to `COc1ccc(-c2cnc3[nH]cc(/C=C/C(N)=O)c3c2)cc1` [Example 12, (E)-3-(5-(4-Methoxyphenyl)-1H-pyrrolo[2,3-b]pyridin-3-yl)acrylamide], the IC50 (on TAK1-TAB1; in experiment [1]) was not above 1 µM each time. Take `NC(=O)/C=C/c1c[nH]c2ncc(-c3cccnc3)cc12` [Example 13, 3-(5-Pyridin-3-yl-1H-pyrrolo[2,3-b]pyridin-3-yl)-acrylamide]: the IC50 (at TAK1-TAB1; in experiment [1]) was not above 1 µM in each case. Turning to `N#Cc1ccc(-c2cnc3[nH]cc(/C=C/C(N)=O)c3c2)cc1` [Example 17, 3-[5-(4-Cyano-phenyl)-1H-pyrrolo[2,3-b]pyridin-3-yl]-acrylamide], the half-inhibitory concentration (IC50) (at TAK1-TAB1; in experiment [1]) was not above 1 µM in each case. On to `N#Cc1cccc(-c2cnc3[nH]cc(/C=C/C(N)=O)c3c2)c1` [Example 18, 3-[5-(3-Cyano-phenyl)-1H-pyrrolo[2,3-b]pyridin-3-yl]-acrylamide], for which the IC50 (on TAK1-TAB1; in experiment [1]) was not above 1 µM each time. In the case of `COc1ccc(-c2cnc3[nH]cc(/C=C/C(N)=O)c3c2)cn1` [Example 20, (E)-3-(5-(6-methoxypyridin-3-yl)-1H-pyrrolo[2,3-b]pyridin-3-yl)acrylamide], the IC50 (on TAK1-TAB1; in experiment [1]) was not above 1 µM each time. For the compound `CS(=O)(=O)c1ccc(-c2cnc3[nH]cc(/C=C/C(N)=O)c3c2)cc1` [Example 23, (E)-3-(5-(4-(methylsulfonyl)phenyl)-1H-pyrrolo[2,3-b]pyridin-3-yl)acrylamide], the IC50 on TAK1-TAB1 is not above 1 µM; in experiment [1], more than 1 µM. Consider `CC(C)(O)COc1ccc(-c2cnc3[nH]cc(/C=C/C(N)=O)c3c2)cc1` [Example 32, (E)-3-(5-(4-(2-hydroxy-2-methylpropoxy)phenyl)-1H-pyrrolo[2,3-b]pyridin-3-yl)acrylamide], for which the half-maximal inhibitory concentration (IC50) (at TAK1-TAB1; in experiment [1]) was not above 1 µM each time. `NC(=O)/C=C/c1c[nH]c2ncc(Cc3ccccc3)cc12` [Example 39]: the IC50 (at TAK1-TAB1; in experiment [1]) was not above 1 µM each time. `N#C/C(=C\c1c[nH]c2ncc(-c3ccccc3)cc12)C(N)=O` [Example 226, (E)-2-Cyano-3-(5-phenyl-1H-pyrrolo[2,3-b]pyridin-3-yl)acrylamide]: the IC50 (at TAK1-TAB1; in experiment [1]) was not above 1 µM throughout. As to `COCCN(C)C(=O)c1cnc2[nH]cc(/C=C/C(N)=O)c2c1` [Example 357, (E)-3-(3-amino-3-oxoprop-1-en-1-yl)-N-(2-methoxyethyl)-N-methyl-1H-pyrrolo[2,3-b]pyridine-5-carboxamide], the IC50 at TAK1-TAB1 is not above 1 µM. Regarding `Cc1cc(C2CCC(c3cnc4[nH]cc(/C=C/C(N)=O)c4c3)CC2)cc(C(F)(F)F)c1` (centres unmarked) [Example 358, (E)-3-(5-(4-(3-methyl-5-(trifluoromethyl)phenyl)cyclohexyl)-1H-pyrrolo[2,3-b]pyridin-3-yl)acrylamide], the IC50 at TAK1-TAB1 is not above 1 µM. On to `CC(C)c1ccccc1-c1cnc2[nH]cc(/C=C/C(N)=O)c2n1` [Example 359], for which the IC50 on TAK1-TAB1 is not above 1 µM. Consider `CC(C)(O)c1ccc(-c2cnc3[nH]cc(/C=C(\C#N)C(N)=O)c3c2)cc1` [Example 360, (E)-2-cyano-3-(5-(4-(2-hydroxypropan-2-yl)phenyl)-1H-pyrrolo[2,3-b]pyridin-3-yl)acrylamide], for which, at TAK1-TAB1, the IC50 was not above 1 µM.

Consider `CC(C)(O)c1cccc(-c2cnc3[nH]cc(/C=C(\C#N)C(N)=O)c3c2)c1` [Example 361, (E)-2-cyano-3-(5-(3-(2-hydroxypropan-2-yl)phenyl)-1H-pyrrolo[2,3-b]pyridin-3-yl)acrylamide], for which the IC50 on TAK1-TAB1 was not above 1 µM. On the same count and under the same terms, with `NC(=O)/C=C/c1c[nH]c2ncc(-c3ccc(C(=O)c4cc(F)cc(F)c4)cc3)cc12` [Example 362, (E)-3-(5-(4-(3,5-difluorobenzoyl)phenyl)-1H-pyrrolo[2,3-b]pyridin-3-yl)acrylamide] the figure was not above 1 µM; with `NC(=O)/C=C/c1c[nH]c2ncc(-c3ccc(N4CCCCC4)nc3)cc12` [Example 363, (E)-3-(5-(6-(piperidin-1-yl)pyridin-3-yl)-1H-pyrrolo [2,3-b]pyridin-3-yl)acrylamide], not above 1 µM; with `N#C/C(=C\c1c[nH]c2ncc(-c3ccc(OCC4CC4)nc3)cc12)C(N)=O` [Example 364, (E)-2-cyano-3-(5-(6-(cyclopropyl-methoxy)pyridin-3-yl)-1H-pyrrolo[2,3-b]pyridin-3-yl)acrylamide], not above 1 µM. Take `CC(C)(O)c1cccc(-c2cnc3[nH]cc(C=C(C(N)=O)C(N)=O)c3c2)c1` [Example 365, 2-((5-(3-(2-hydroxypropan-2-yl)phenyl)-1H-pyrrolo[2,3-b]pyridin-3-yl)methylene) malonamide]: the IC50 on TAK1-TAB1 was not above 1 µM.

These data come from patent US9499551B2, “Substituted pyrrolo[2,3-b]pyridines for treating cancer or inflammatory diseases” (Confluence Life Sciences, Inc., priority 2014, dated 2016).
